Calls of active or inactive are those of the source. No rule for the calls is given here.
Target: glucose-6-phosphate dehydrogenase-6-phosphogluconolactonase (Plasmodium falciparum 3D7)
Test: concentration-dependent PfGluPho enzyme inhibition – biochemical, fluorescence intensity, dose response (AID 504765)
Settings: Recombinant PfG6PD enzyme, fluorescence intensity (NADPH)

Row | Structure (SMILES) | IC50
1 | CC(=O)Nc1cc([N+](=O)[O-])ccc1OCc1ccccc1 | 19.8 µM
2 | CCN(CC)C(=O)c1c(C)[nH]c(=S)c(C#N)c1-c1ccco1 | inactive
3 | Cc1ccc(-n2sc3cc(F)ccc3c2=O)c(C)c1 | 1.43 µM
4 | O=C(COc1ccccc1F)OCC(=O)c1ccc([N+](=O)[O-])cc1 | 12.4 µM
5 | COc1ccc(CNC(=O)Cc2cn(C)c3ccccc23)c(OC)c1 | 6.8 µM
6 | COc1cc(O)c(C(=O)O)c(-c2cc(O)c(O)cc2C)c1 | 3.75 µM
7 | Cc1ccc(S(=O)(=O)N(C(=O)c2ccncc2)c2ccc(OC(=O)c3ccncc3)c3ccccc23)cc1 | 17.7 µM
8 | CN(C)c1ccc(C=c2c3cc(O)ccc3n3c2cc(-c2ccccc2)[n+]3C)cc1 | 9.89 µM
9 | CCCCCCCCn1sccc1=O | 3.75 µM
10 | CC(=O)Nc1ccc2c(c1)Cc1cc(N3C(=O)C=CC3=O)ccc1-2 | 19.3 µM
11 | CCN1CCCC1CNC(=O)c1ccc2c(c1)NC(=O)/C(=C\c1ccccc1F)S2 (configuration not stated) | 1.96 µM
12 | Cc1cc(C)c(NC(=S)NCC2CCN(C(C)c3ccccc3)C2)c(C)c1 (configuration not stated) | 14.8 µM
13 | O=C1NC(=S)NC(=O)C1=Cc1ccc(Br)s1 | 7.9 µM
14 | Cc1ccc(S(=O)(=O)Oc2cccc(/C=N/Nc3ccc(C(=O)O)cc3)c2)cc1 | 7.01 µM
15 | O=C(Sc1n[nH]c(=O)[nH]c1=O)c1ccccc1 | 3.33 µM
16 | Cc1nc2ccc(Nc3nc4cc(S(=O)(=O)N5CCOCC5)ccc4o3)cc2s1 | inactive
17 | Nc1ccc(N(CCO)CCO)cc1 | 4.71 µM
18 | COc1cccc(C(=O)Nc2nnc(S(=O)(=O)N(C)Cc3ccccc3)s2)c1 | 4.04 µM
19 | Cn1c(=O)[nH]c(=O)c2c1nc([N+](=O)[O-])n2Cc1ccccc1 | 3.16 µM
20 | O=C(NCCCN1CCOCC1)c1sc2cc([N+](=O)[O-])ccc2c1Cl | 6.75 µM
21 | O=C(Nc1sc2c(c1C(=O)O)CCC2)c1ccc(F)cc1 | 7.8 µM
22 | CCNc1cc2c(cc1O)CCC1C2CCC2(C)C(O)CCC12 (configuration not stated) | inactive
23 | Cc1nnc(Sc2cc(NCCO)c([N+](=O)[O-])c3nonc23)s1 | 5.56 µM
24 | O=C(Cn1sc2ccccc2c1=O)Nc1ccc(Br)cc1 | 5.16 µM
25 | COC(=O)C1=C(C(=O)OC)SC2(S1)C(C(=O)OC)=C(C(=O)OC)Sc1c2ssc1=O | 1.4 µM

Row | Structure (SMILES) | IC50
26 | CCOC(=O)c1ccc(/[N+]([O-])=C/c2ccccc2)cc1 | 2.69 µM
27 | Cc1cccc(-n2c(=S)[nH]c3sc4c(c3c2=O)CCc2ccccc2-4)c1 | inactive
28 | O=c1c2cc(F)ccc2sn1-c1ccc(F)cc1 | 2.22 µM
29 | COc1c2ccoc2c(OCC=C(C)C)c2oc(=O)ccc12 | inactive
30 | N#Cc1c(C#N)c(SSc2c(C#N)c(C#N)c(N)n2-c2ccccc2)n(-c2ccccc2)c1N | 1.41 µM
31 | CN1CCc2cccc3c2[C@H]1Cc1ccc(O)c(O)c1-3 | 8.4 µM
32 | CC1N(C)c2cccc3cccc(c23)N1C | 11.2 µM
33 | CCCn1cc(S(=O)(=O)CC(=O)Nc2ccc(OC)cc2OC)c2ccccc21 | 7.87 µM
34 | COc1cc(/C=C2\SC(c3ccc(C)cc3)=NC2=O)cc(OC)c1O | 9.38 µM
35 | COCCn1nnnc1C(c1cc2cc(OC)c(OC)cc2[nH]c1=O)N1CCN(c2ccc(O)cc2)CC1 (configuration not stated) | inactive
36 | Cc1ccc(S(=O)(=O)C=CS(=O)(=O)c2ccc(C)cc2)cc1 | 6.65 µM
37 | Cc1nnc(SCC(=O)c2cc(C)n(-c3ccc4c(c3)OCO4)c2C)s1 | 7.35 µM
38 | Cc1ccc(NC(=O)c2cc(N3C(=O)C=CC3=O)ccc2N2CCOCC2)cc1Cl | 12.2 µM
39 | COc1cc(SSc2cc(OC)cc([N+](=O)[O-])c2N)c(N)c([N+](=O)[O-])c1 | 4.2 µM
40 | N#Cc1ccc2c(=O)n(-c3ccccc3)sc2c1 | 3.86 µM
41 | Cc1ccc(-c2nc(N3CCOCC3)s[n+]2-c2ccccc2)cc1 | 5.65 µM
42 | CCN(CC)c1ccc(C(=C2C=CC(=[N+](CC)CC)C=C2)c2ccccc2)cc1 | 11.7 µM
43 | CCC(C)(C)c1nnc(NC(=O)C2CCN(C(=O)c3ccco3)CC2)s1 | inactive
44 | Nc1ccc(S(=O)(=O)c2cc(O)c3ccccc3c2O)cc1 | 5.79 µM
45 | CC(C)c1nnc(NC(=O)c2cc3ccccc3o2)s1 | 16.5 µM
46 | CN(C)c1ccc(C=c2c3ccccc3n3c2c2ccccc2[n+]3C)cc1 | 16 µM
47 | O=C1C=C(NCCc2cc(Br)c(O)c(Br)c2)C(=O)c2ncccc21 | 1.35 µM
48 | O=C(CNC(=O)c1ccccc1)NCC(=O)OCC(=O)c1ccc([N+](=O)[O-])cc1 | inactive
49 | Cc1ccc(S(=O)(=O)/N=C2/C=C(C3C(=O)CC(C)(C)CC3=O)C(=O)c3ccccc32)cc1 | 14.1 µM
50 | COc1ccc(NC(C)C(=O)N/N=C/c2cc(Br)ccc2OC)cc1 (configuration not stated) | 8.77 µM

Row | Structure (SMILES) | IC50
51 | C[C@]12CC[C@@H]3c4ccc(O)c(O)c4CC[C@H]3[C@@H]1CC[C@@H]2O | 4.02 µM
52 | O=C1C=CC(=O)N1CCNc1ncc(C(F)(F)F)cc1Cl | 20 µM
53 | O=c1[nH]c(NCCO)c(N=Cc2ccccc2)c(=O)[nH]1 | 1.03 µM
54 | C=CCOc1c(Cl)cc(CNc2ccc3[nH]c(=O)[nH]c3c2)cc1OC | 7.9 µM
55 | O=C(Nc1nc(-c2ccncc2)cs1)C1COc2ccccc2O1 (configuration not stated) | inactive
56 | Cc1nn(-c2ccccc2)c(Cl)c1/C=N/Nc1nc2ccccc2n1C | 13.3 µM
57 | COC1=C(OC)C(=O)C(Sc2ccc3ccccc3c2)=CC1=O | 0.781 µM
58 | Oc1ccc(NCc2ccccc2OCc2ccccc2)cc1 | inactive
59 | Clc1ccc2nc(-c3ccc(Br)s3)cn2c1 | 8.89 µM
60 | COc1cccc(C(=O)Nc2nnc(C(C)C)s2)c1 | 5.83 µM
61 | COc1ccc(/C=C/c2nc3ccccc3n2Cc2ccc(OC)c(OC)c2)cc1 | inactive
62 | NS(=O)(=O)c1ccc(N/N=C/c2ccc(O)c(O)c2O)c([N+](=O)[O-])c1 | 5.7 µM
63 | O=C1C=CC2=C3c4cc(O)c(O)cc4CC3(O)COC2=C1O (configuration not stated) | 6.49 µM
64 | COc1ccc(N2C(=O)/C(=C/c3cccs3)NC2=S)cc1 | inactive
65 | CCOc1ccc(N(CC(=O)N/N=C/c2cc([N+](=O)[O-])ccc2Cl)S(C)(=O)=O)cc1 | 15.1 µM
66 | Cc1noc(C(=O)Nc2sc3c(c2C#N)CCC3)c1Cl | 4.83 µM
67 | O=[N+]([O-])c1cnc(Sc2ccncn2)c([N+](=O)[O-])c1 | 9.62 µM
68 | c1ccc(OCc2nnc3n2N=C(c2ccccc2)CS3)cc1 | 17.1 µM
69 | Cc1ccc(/C=C/C(=O)NCCc2cccc(Cl)c2)o1 | 7.59 µM
70 | Nc1[nH]c(=O)[nH]c(=O)c1N=Cc1ccccc1 | 3.29 µM
71 | O=c1c2cc(C(F)(F)F)ccc2sn1-c1ccccc1 | 3.89 µM
72 | O=c1c2ccccc2sn1-c1ccc(S(=O)(=O)N2CCCCC2)cc1 | 7.2 µM
73 | CN1C(=O)C(N=Nc2ccc([N+](=O)[O-])cc2)SC1=S (configuration not stated) | 5.43 µM
74 | Oc1cc(CNCc2ccccc2)c(O)cc1CNCc1ccccc1 | 3.36 µM
75 | O=C(Nc1nnc(S(=O)(=O)N2CCCCC2)s1)c1ccc(Cl)cc1 | 6.01 µM

Row | Structure (SMILES) | IC50
76 | Cc1cc(C)c(S(=O)(=O)/N=C2/C=C(SCC(=O)O)C(=O)c3ccccc32)cc1C | 2.41 µM
77 | Cc1ccc(Nc2cc(C)c(O)c(C)c2)cc1 | 6.16 µM
78 | CC(C)Nc1ccc(Nc2ccccc2)cc1 | 12.1 µM
79 | COc1ccc(C(=O)c2c(C(F)(F)F)oc3c2C(=O)c2ccccc2C3=O)cc1 | inactive
80 | Cc1ccc(/C=C/C(=O)Nc2ccc([N+](=O)[O-])c(NC(=O)/C=C/c3ccc(C)o3)c2)o1 | 4.84 µM
81 | COc1cc(/C=C/C(=O)c2ccc([N+](=O)[O-])o2)ccc1O | 5.16 µM
82 | CC(C)c1nnc(NC(=O)c2sc3ccccc3c2Cl)s1 | 6.44 µM
83 | Cc1nc2c(o1)C(=O)c1ccccc1C2=Nc1ccccc1 | 7 µM
84 | COc1ccc(CCn2c(NN=C3CCCCC3)nc3c2c(=O)[nH]c(=O)n3C)cc1 | 1.65 µM
85 | O=C(OCC(=O)c1ccc([N+](=O)[O-])cc1)/C(=C\c1ccc(Cl)cc1)NC(=O)c1ccccc1 | inactive
86 | CCOC(=O)C1CCCN(C(=O)Cn2sc3nc(C)cc(C)c3c2=O)C1 (configuration not stated) | 3.15 µM
87 | N#C/C(C(=O)Nc1ccc(Cl)cc1)=C(/S)Nc1ccccc1 | 1.89 µM
88 | CC(=O)OCCCNc1cc(Sc2nc3ccccc3s2)c2nonc2c1[N+](=O)[O-] | 3.92 µM
89 | CC(=O)OCC1(C)CN(c2ccccc2)NC1=O (configuration not stated) | 5.19 µM
90 | CC(=O)Nc1ccc2sn(-c3ccccc3)c(=O)c2c1 | 2.53 µM
91 | COc1cc(CNc2ccc(N3CCCC3)cc2)ccc1OCc1ccccc1F | 2.39 µM
92 | C[n+]1c(-c2ccccc2)cc2c(=Cc3ccc([N+](=O)[O-])cc3)c3ccccc3n21 | inactive
93 | CCCN1CCc2cc(O)cc3c2[C@H]1Cc1ccc(O)c(O)c1-3 | 10.8 µM
94 | COc1ccccc1N1C(=O)C=C(Sc2nc(C)cc(C)n2)C1=O | 7.18 µM
95 | CC1(C)Nc2ccc(O)cc2-c2c1ssc2=S | inactive
96 | COc1cc(Sc2ccc(C)cc2)c(OC)cc1N | 7.04 µM
97 | OCCN1CCN(C(=S)c2ccc(Cl)c(Cl)c2)CC1 | 12.5 µM
